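Following 48 hours of exposure in 96-well plates, responses at five concentrations were used to interpolate endpoints linearly. GI50 is the concentration that inhibits growth by half. At the TGI there is no net growth.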
Assays:
Experiment in all cases: NCI tumour cell line growth inhibition, 48 h
[1] = test system: 786-0 renal
[2] = test system: A498 renal
[3] = test system: A549 NSCLC
[4] = test system: ACHN renal
[5] = test system: BT-549 breast
[6] = test system: CAKI-1 renal
[7] = test system: CCRF-CEM leukemia
[8] = test system: COLO 205 colon
[9] = test system: DU-145 prostate
[10] = test system: EKVX NSCLC
[11] = test system: HCC-2998 colon
[12] = test system: HCT-116 colon
[13] = test system: HCT-15 colon
[14] = test system: HL-60(TB) leukemia
[15] = test system: HOP-62 NSCLC
[16] = test system: HOP-92 NSCLC
[17] = test system: HS 578T breast
[18] = test system: HT29 colon
[19] = test system: IGROV1 ovarian
[20] = test system: K-562 leukemia
[21] = test system: KM12 colon
[22] = test system: LOX IMVI melanoma
[23] = test system: M14 melanoma
[24] = test system: MALME-3M melanoma
[25] = test system: MCF7 breast
[26] = test system: MDA-MB-231 breast
[27] = test system: MDA-MB-435
[28] = test system: MOLT-4 leukemia
[29] = test system: NCI-H226 lung
[30] = test system: NCI-H23 lung
[31] = test system: NCI-H460 lung
[32] = test system: NCI-H522 lung
[33] = test system: NCI/ADR-RES ovarian
[34] = test system: OVCAR-3 ovarian
[35] = test system: OVCAR-4 ovarian
[36] = test system: OVCAR-5 ovarian
[37] = test system: OVCAR-8 ovarian
[38] = test system: PC-3 prostate
[39] = test system: RPMI-8226 leukemia
[40] = test system: RXF 393 renal
[41] = test system: SF-268 CNS
[42] = test system: SF-295 CNS
[43] = test system: SF-539 CNS
[44] = test system: SK-MEL-2 melanoma
[45] = test system: SK-MEL-28 melanoma
[46] = test system: SK-MEL-5 melanoma
[47] = test system: SK-OV-3 ovarian
[48] = test system: SN12C renal
[49] = test system: SNB-19 CNS
[50] = test system: SNB-75 CNS
[51] = test system: SR leukemia
[52] = test system: SW-620 colon
[53] = test system: T-47D breast
[54] = test system: TK-10 renal
[55] = test system: U251 CNS
[56] = test system: UACC-257 melanoma
[57] = test system: UACC-62 melanoma
[58] = test system: UO-31 renal

## O=C(OC[C@H]1O[C@H](OC(=O)c2cc(O)c(O)c(OC(=O)c3cc(O)c(O)c(O)c3)c2)[C@H](OC(=O)c2cc(O)c(O)c(OC(=O)c3cc(O)c(O)c(O)c3)c2)[C@@H](OC(=O)c2cc(O)c(O)c(OC(=O)c3cc(O)c(O)c(O)c3)c2)[C@@H]1OC(=O)c1cc(O)c(O)c(OC(=O)c2cc(O)c(O)c(O)c2)c1)c1cc(O)c(O)c(OC(=O)c2cc(O)c(O)c(O)c2)c1
[1]
  GI50: 4.89 µM
  TGI: 20.2 µM
[2]
  GI50: > 25 µM
  TGI: > 25 µM
[3]
  GI50: 1.4 µM
  TGI: > 25 µM
[4]
  GI50: 6.42 µM
  TGI: > 25 µM
[5]
  GI50: 6.77 µM
  TGI: > 25 µM
[6]
  GI50: 1.39 µM
  TGI: > 25 µM
[7]
  GI50: 3.23 µM
  TGI: > 25 µM
[8]
  GI50: 8.17 µM
  TGI: > 25 µM
[9]
  GI50: 3.57 µM
  TGI: > 25 µM
[10]
  GI50: 5.2 µM
  TGI: > 25 µM
[11]
  GI50: 2.52 µM
  TGI: > 25 µM
[12]
  GI50: 1.57 µM
  TGI: 6.98 µM
[13]
  GI50: 6.2 µM
  TGI: > 25 µM
[14]
  GI50: 7.53 µM
  TGI: 23.5 µM
[15]
  GI50: 1.78 µM
  TGI: > 25 µM
[16]
  GI50: 10.6 µM
  TGI: > 25 µM
[17]
  GI50: 10.3 µM
  TGI: > 25 µM
[18]
  GI50: 3.86 µM
  TGI: 9.22 µM
[19]
  GI50: 3.69 µM
  TGI: > 25 µM
[20]
  GI50: 9.63 µM
  TGI: > 25 µM
[21]
  GI50: 1.67 µM
  TGI: > 25 µM
[22]
  GI50: 1.24 µM
  TGI: > 25 µM
[23]
  GI50: 5.01 µM
  TGI: > 25 µM
[24]
  GI50: 7.42 µM
  TGI: > 25 µM
[25]
  GI50: 5.21 µM
  TGI: 11.1 µM
[26]
  GI50: 0.898 µM
  TGI: > 25 µM
[27]
  GI50: 1.5 µM
  TGI: 7.89 µM
[28]
  GI50: 4.32 µM
  TGI: > 25 µM
[29]
  GI50: 3.23 µM
  TGI: 18 µM
[30]
  GI50: 1.56 µM
  TGI: > 25 µM
[31]
  GI50: 1.09 µM
  TGI: > 25 µM
[32]
  GI50: 1.96 µM
  TGI: 7.68 µM
[33]
  GI50: 1.3 µM
  TGI: 18.9 µM
[34]
  GI50: 4.68 µM
  TGI: 22.1 µM
[35]
  GI50: 4.67 µM
  TGI: 18.3 µM
[36]
  GI50: 4.95 µM
  TGI: > 25 µM
[37]
  GI50: 1.91 µM
  TGI: > 25 µM
[38]
  GI50: 2.33 µM
  TGI: > 25 µM
[39]
  GI50: 7.35 µM
  TGI: > 25 µM
[40]
  GI50: 1.2 µM
  TGI: 7.48 µM
[41]
  GI50: 2.18 µM
  TGI: > 25 µM
[42]
  GI50: 0.941 µM
  TGI: > 25 µM
[43]
  GI50: 5.56 µM
  TGI: > 25 µM
[44]
  GI50: 9.02 µM
  TGI: > 25 µM
[45]
  GI50: 12.8 µM
  TGI: > 25 µM
[46]
  GI50: 2.98 µM
  TGI: 13.1 µM
[47]
  GI50: 2.25 µM
  TGI: > 25 µM
[48]
  GI50: 4.2 µM
  TGI: > 25 µM
[49]
  GI50: 2.57 µM
  TGI: > 25 µM
[50]
  GI50: 2.37 µM
  TGI: > 25 µM
[51]
  GI50: 1.86 µM
  TGI: > 25 µM
[52]
  GI50: 5.48 µM
  TGI: > 25 µM
[53]
  GI50: 2.85 µM
  TGI: 16.6 µM
[54]
  GI50: 7.66 µM
  TGI: > 25 µM
[55]
  GI50: 1.9 µM
  TGI: > 25 µM
[56]
  GI50: 13.4 µM
  TGI: > 25 µM
[57]
  GI50: 0.985 µM
  TGI: > 25 µM
[58]
  GI50: 2.61 µM
  TGI: > 25 µM

## C[N+]1=C(/C=C\C=C\c2ccccc2)C(C)(C)c2ccccc21
[1]
  GI50: 3.19 µM
  TGI: 10.7 µM
[2]
  GI50: 3.08 µM
  TGI: 11.3 µM
[3]
  GI50: 4.43 µM
  TGI: 19.6 µM
[4]
  GI50: 5.84 µM
  TGI: 18.7 µM
[5]
  GI50: 2.34 µM
  TGI: 9.29 µM
[6]
  GI50: 3.82 µM
  TGI: 13.5 µM
[7]
  GI50: 2.36 µM
  TGI: 7.76 µM
[8]
  GI50: 0.686 µM
  TGI: 2.26 µM
[9]
  GI50: 4.62 µM
  TGI: 16.1 µM
[10]
  GI50: 2.42 µM
  TGI: 14.4 µM
[11]
  GI50: 3.28 µM
  TGI: 14.9 µM
[12]
  GI50: 3.3 µM
  TGI: 13.2 µM
[13]
  GI50: 2.27 µM
  TGI: 11.8 µM
[14]
  GI50: 0.258 µM
  TGI: 1.62 µM
[15]
  GI50: 4.1 µM
  TGI: 15.1 µM
[16]
  GI50: 2.35 µM
  TGI: 6.77 µM
[17]
  GI50: 4.6 µM
  TGI: 22.4 µM
[18]
  GI50: 2.6 µM
  TGI: 9.09 µM
[19]
  GI50: 2.06 µM
  TGI: 8.2 µM
[20]
  GI50: 0.442 µM
  TGI: 7.28 µM
[21]
  GI50: 3.15 µM
  TGI: 10.8 µM
[22]
  GI50: 1.31 µM
  TGI: 2.7 µM
[23]
  GI50: 2.14 µM
  TGI: 7.71 µM
[24]
  GI50: 1.87 µM
  TGI: 4.37 µM
[25]
  GI50: 2.48 µM
  TGI: 11 µM
[26]
  GI50: 2.36 µM
  TGI: 7.52 µM
[27]
  GI50: 2.01 µM
  TGI: 5.17 µM
[28]
  GI50: 2.13 µM
  TGI: 6.44 µM
[29]
  GI50: 4.33 µM
  TGI: 25.5 µM
[30]
  GI50: 2.83 µM
  TGI: 11.5 µM
[31]
  GI50: 4.44 µM
  TGI: 17.2 µM
[32]
  GI50: 0.863 µM
  TGI: 2.9 µM
[33]
  GI50: 9.45 µM
  TGI: 33.9 µM
[34]
  GI50: 1.08 µM
  TGI: 2.81 µM
[35]
  GI50: 2.69 µM
  TGI: 13.8 µM
[36]
  GI50: 3.88 µM
  TGI: 13.3 µM
[37]
  GI50: 2.11 µM
  TGI: 10.5 µM
[38]
  GI50: 3.54 µM
  TGI: 14.9 µM
[39]
  GI50: 1.22 µM
  TGI: 6.53 µM
[40]
  GI50: 1.75 µM
  TGI: 3.62 µM
[41]
  GI50: 3.33 µM
  TGI: 12.1 µM
[42]
  GI50: 10.8 µM
  TGI: 24.6 µM
[43]
  GI50: 2.59 µM
  TGI: 7.57 µM
[44]
  GI50: 1.69 µM
  TGI: 4.31 µM
[45]
  GI50: 1.53 µM
  TGI: 3.46 µM
[47]
  GI50: 11.3 µM
  TGI: 23.9 µM
[48]
  GI50: 0.863 µM
  TGI: 12.4 µM
[49]
  GI50: 2.79 µM
  TGI: 10.8 µM
[50]
  GI50: 3.73 µM
  TGI: 16.2 µM
[51]
  GI50: 0.925 µM
  TGI: 4.31 µM
[52]
  GI50: 1.38 µM
  TGI: 4.08 µM
[53]
  GI50: 0.966 µM
  TGI: 5.36 µM
[54]
  GI50: 4.47 µM
  TGI: 15.7 µM
[55]
  GI50: 1.59 µM
  TGI: 4.18 µM
[56]
  GI50: 1.69 µM
  TGI: 4.52 µM
[57]
  GI50: 1.65 µM
  TGI: 4.98 µM
[58]
  GI50: 3.49 µM
  TGI: 15 µM

From PubChem BioAssay (NCI)
